Results: patent US20070128217A1 (priority 2003, published 2007)

Legend:
[1] = system: antibodies in sera from SARS patients (sera 1a, 1b, 2, 6, 37, 62, London, SARS-yellow, SARS-green); assay type: binding, human; parameters: Binding of serum 6 to linear peptides of protein X1 of SARS-CoV Urbani / Binding of serum 37 to linear peptides of protein X1 of SARS-CoV Urbani / Binding of serum 6 to looped/cyclic peptide (PEPSCAN-ELISA) / Binding of serum 37 to looped/cyclic peptide (PEPSCAN-ELISA) / Binding of serum 37 to looped/cyclic peptides of protein X1 of SARS-CoV Urbani / Binding of serum 6 to linear peptides of protein X2 / Binding of serum 37 to linear peptides of protein X2 / Binding of serum 37 to looped/cyclic peptides of protein X2 of SARS-CoV Urbani / Binding of serum 6 to linear peptides of protein M of SARS-CoV Urbani / Binding of serum 37 to linear peptides of protein M of SARS-CoV Urbani / Binding of serum 6 to looped/cyclic peptides of protein M of SARS-CoV Urbani / Binding of serum 37 to looped/cyclic peptides of protein M of SARS-CoV Urbani / Binding of serum 6 to linear peptides of protein X3 of SARS-CoV Urbani / Binding of serum 37 to linear peptides of protein X3 of SARS-CoV Urbani / Binding of serum 37 to looped/cyclic peptides of protein X3 of SARS-CoV Urbani / Binding of serum 6 to linear peptides of protein X4 of SARS-CoV Urbani / Binding of serum 37 to linear peptides of protein X4 of SARS-CoV Urbani / Binding of serum 37 to looped/cyclic peptides of protein X4 of SARS-CoV Urbani / Binding of serum 6 to linear peptides of protein X5 of SARS-CoV Urbani / Binding of serum 37 to linear peptides of protein X5 of SARS-CoV Urbani / Binding of serum 37 to looped/cyclic peptides of protein X5 of SARS-CoV Urbani / Binding of serum 6 to linear peptides of protein N of SARS-CoV Urbani / Binding of serum 37 to linear peptides of protein N of SARS-CoV Urbani / Binding of serum 6 to linear peptide (PEPSCAN-ELISA) / Binding of serum 1a to looped/cyclic peptides of protein N of SARS-CoV Urbani / Binding of serum 1b to looped/cyclic peptides of protein N of SARS-CoV Urbani / Binding of serum 2 to looped/cyclic peptides of protein N of SARS-CoV Urbani / Binding of serum 6 to looped/cyclic peptides of protein N of SARS-CoV Urbani / Binding of serum 37 to looped/cyclic peptides of protein N of SARS-CoV Urbani / Binding of serum 62 to looped/cyclic peptides of protein N of SARS-CoV Urbani / Binding of serum London to looped/cyclic peptides of protein N of SARS-CoV Urbani / Binding of serum SARS-green to looped/cyclic peptides of protein N of SARS-CoV Urbani: unit not given here
[2] = system: control sera (pooled serum of ten healthy LUMC hospital workers; commercial negative donor pooled serum from the Dutch bloodbank); assay type: binding, human; parameters: Binding of Control serum LUMC to linear peptides / Binding of Control serum Blood-bank to linear peptides / Binding of Control serum LUMC to looped peptides / Binding of Control Serum Blood-Bank to Looped peptides / Binding of Control serum LUMC to linear peptides of the protein M of SARS-CoV Urbani / Binding of Control serum Blood-bank to linear peptides of the protein M of SARS-CoV Urbani / Binding of Control serum LUMC to looped peptides of the protein M of SARS-CoV Urbani / Binding of Control Serum Blood-Bank to Looped peptides of the protein M of SARS-CoV Urbani: unit not given here
[3] = system: rabbit serum obtained by immunizing a rabbit with the SARS-CoV strain Frankfurt 1; assay type: binding; parameters: Binding of a rabbit serum to linear peptides / Binding of a rabbit serum to looped peptides / Rabbit serum linear peptides / Rabbit serum looped peptides / Binding of a rabbit serum to linear peptides of protein N of SARS-CoV Urbani (Rabbit serum linear peptides) / Binding of a rabbit serum to looped/cyclic peptides of protein N of SARS-CoV Urbani (Rabbit serum looped peptides): unit not given here
[4] = system: recombinant human anti-SARS-CoV antibody 03-018; assay type: binding; parameters: Binding of antibody 03-018 to linear peptides of the N protein of SARS-CoV Urbani / Binding of antibody 03-018 to looped/cyclic peptides of the N protein of SARS-CoV Urbani: unit not given here

DYKHWPQIAQFAPSA
Binding of serum 1a to linear peptides of protein N of SARS-CoV Urbani [1]: 0.3
Binding of serum 1a to looped/cyclic peptides of protein N of SARS-CoV Urbani [1]: 0.4
Binding of serum 1b to linear peptides of protein N of SARS-CoV Urbani [1]: 0.2
Binding of serum 1b to looped/cyclic peptides of protein N of SARS-CoV Urbani [1]: 0.3
Binding of serum 2 to linear peptides of protein N of SARS-CoV Urbani [1]: 0.2
Binding of serum 2 to looped/cyclic peptides of protein N of SARS-CoV Urbani [1]: 0.4
Binding of serum 6 to linear peptides of protein N of SARS-CoV Urbani [1]: 0.2
Binding of serum 6 to looped/cyclic peptides of protein N of SARS-CoV Urbani [1]: 0.2
Binding of serum 37 to linear peptides of protein N of SARS-CoV Urbani [1]: 0.9
Binding of serum 37 to looped/cyclic peptides of protein N of SARS-CoV Urbani [1]: 0.6
Binding of serum 62 to linear peptides of protein N of SARS-CoV Urbani [1]: 0.9
Binding of serum 62 to looped/cyclic peptides of protein N of SARS-CoV Urbani [1]: 0.6
Binding of serum London to linear peptides of protein N of SARS-CoV Urbani [1]: 0.7
Binding of serum London to looped/cyclic peptides of protein N of SARS-CoV Urbani [1]: 0.5
Binding of serum SARS-green to linear peptides of protein N of SARS-CoV Urbani [1]: 0.4
Binding of serum SARS-green to looped/cyclic peptides of protein N of SARS-CoV Urbani [1]: 0.2
Binding of serum SARS-yellow to linear peptides of protein N of SARS-CoV Urbani [1]: 0.8
Binding of serum SARS-yellow to looped/cyclic peptides of protein N of SARS-CoV Urbani [1]: 0.7
Control Serum Blood-Bank Looped peptides [2]: 0.6
Control serum Blood-bank linear peptides [2]: 0.9
Control serum LUMC linear peptides [2]: 0.8
Control serum LUMC looped peptides [2]: 0.7
Binding of a rabbit serum to linear peptides of protein N of SARS-CoV Urbani (Rabbit serum linear peptides) [3]: 0.1
Binding of a rabbit serum to looped/cyclic peptides of protein N of SARS-CoV Urbani (Rabbit serum looped peptides) [3]: 0.5
Binding of antibody 03-018 to linear peptides of the N protein of SARS-CoV Urbani [4]: 0.1
Binding of antibody 03-018 to looped/cyclic peptides of the N protein of SARS-CoV Urbani [4]: 0.2

EASKKPRQKRTATKQ
Binding of serum 1a to linear peptide (PEPSCAN-ELISA) [1]: 0.2
Binding of serum 1a to looped/cyclic peptides of protein N of SARS-CoV Urbani [1]: 0.3
Binding of serum 1b to linear peptide (PEPSCAN-ELISA) [1]: 0.1
Binding of serum 1b to looped/cyclic peptides of protein N of SARS-CoV Urbani [1]: 0.2
Binding of serum 2 to linear peptide (PEPSCAN-ELISA) [1]: 0.3
Binding of serum 2 to looped/cyclic peptides of protein N of SARS-CoV Urbani [1]: 0.4
Binding of serum 6 to linear peptide (PEPSCAN-ELISA) [1]: 0.3
Binding of serum 6 to looped/cyclic peptides of protein N of SARS-CoV Urbani [1]: 0.3
Binding of serum 37 to linear peptide (PEPSCAN-ELISA) [1]: 0.7
Binding of serum 37 to looped/cyclic peptides of protein N of SARS-CoV Urbani [1]: 0.6
Binding of serum 62 to linear peptide (PEPSCAN-ELISA) [1]: 0.7
Binding of serum 62 to looped/cyclic peptides of protein N of SARS-CoV Urbani [1]: 0.5
Binding of serum London to linear peptide (PEPSCAN-ELISA) [1]: 0.5
Binding of serum London to looped/cyclic peptides of protein N of SARS-CoV Urbani [1]: 0.5
Binding of serum SARS-green to linear peptide (PEPSCAN-ELISA) [1]: 0.3
Binding of serum SARS-green to looped/cyclic peptides of protein N of SARS-CoV Urbani [1]: 0.3
Binding of serum SARS-yellow to linear peptide (PEPSCAN-ELISA) [1]: 0.6
Binding of serum SARS-yellow to looped/cyclic peptides of protein N of SARS-CoV Urbani [1]: 0.4
Binding of Control Serum Blood-Bank to Looped peptides [2]: 0.8
Binding of Control serum Blood-bank to linear peptides [2]: 0.9
Binding of Control serum LUMC to linear peptides [2]: 0.8
Binding of Control serum LUMC to looped peptides [2]: 0.6
Binding of a rabbit serum to linear peptides of protein N of SARS-CoV Urbani (Rabbit serum linear peptides) [3]: 0.2
Binding of a rabbit serum to looped/cyclic peptides of protein N of SARS-CoV Urbani (Rabbit serum looped peptides) [3]: 0.2
Binding of antibody 03-018 to linear peptides of the N protein of SARS-CoV Urbani [4]: 0.1
Binding of antibody 03-018 to looped/cyclic peptides of the N protein of SARS-CoV Urbani [4]: 0.3
